Data: publication PMC10313052, “Filarial DAF-12 sense the host serum to resume iL3 development during infection” (PLOS Pathogens, 2023)
Entries after “also recorded” stand apart in the source; their conditions may differ.

Legend:
DimDAF-12 = DimDAF-12 (Dirofilaria immitis, UniProt A0A7D0JJL8); assay: cell-based; type: cell-based
HcoDAF-12 = target: T1, HcoDAF-12 (Haemonchus contortus, UniProt A0A7I4Z123); assay: Cell-based transactivation assay, Gal4-HcoDAF-12_LBD luciferase reporter in NIH3T3 cells
T1 sequence (A0A7I4Z123 444-684): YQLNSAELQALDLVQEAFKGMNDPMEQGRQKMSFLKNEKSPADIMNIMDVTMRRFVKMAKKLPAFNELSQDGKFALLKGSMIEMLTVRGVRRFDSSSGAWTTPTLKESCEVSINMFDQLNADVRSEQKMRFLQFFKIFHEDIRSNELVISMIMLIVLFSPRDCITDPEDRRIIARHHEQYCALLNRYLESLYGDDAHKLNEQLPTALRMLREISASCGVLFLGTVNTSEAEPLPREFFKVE

CelDAF-12 = target: T2, CelDAF-12 (Caenorhabditis elegans, UniProt G5EFF5); assay: cell-based; type: cell-based
T2 construct: fusing the LBD of the receptor of interest (Hco, Cel, Dim or BmaDAF12) and the DBD of GAL4; expressed in transfected cells; host or cells: NIH3T3
T2 sequence (G5EFF5 516-753 limits assumed): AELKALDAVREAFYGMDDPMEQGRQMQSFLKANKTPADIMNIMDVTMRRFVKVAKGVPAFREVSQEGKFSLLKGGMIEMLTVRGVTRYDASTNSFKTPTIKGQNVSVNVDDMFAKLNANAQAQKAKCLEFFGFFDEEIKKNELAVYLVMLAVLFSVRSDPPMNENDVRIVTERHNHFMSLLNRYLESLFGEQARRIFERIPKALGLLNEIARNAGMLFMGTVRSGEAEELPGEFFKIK

FXR = conditions: 10μM, 24 hours
D. immitis iL3 = conditions: 50 µM
[1] = NIH3T3, 24 h, technical triplicates, Fig 2, read-out: EC50 (logEC50 SE) (converted)
[2] = concentrations well above the relevant physiological values

DimDAF-12, sequence (A0A7D0JJL8 587-828 limits assumed): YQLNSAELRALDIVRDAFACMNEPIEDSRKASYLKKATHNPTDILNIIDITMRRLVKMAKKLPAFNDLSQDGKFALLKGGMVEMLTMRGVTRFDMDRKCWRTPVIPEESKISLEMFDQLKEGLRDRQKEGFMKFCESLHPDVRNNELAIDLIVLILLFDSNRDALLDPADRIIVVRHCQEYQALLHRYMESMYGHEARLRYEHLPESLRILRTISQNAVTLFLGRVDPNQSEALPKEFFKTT

Molecule: CC(CCCC(C)C1CCC2C3=CCC4CC(=O)CCC4(C)C3CCC21C)C(=O)O [Δ7-dafachronic acid, (25S)-Δ7-dafachronic acid]
- EC50 (DimDAF-12): 1 nM
- EC50 (HcoDAF-12; [1]): 12 nM
- EC50 (CelDAF-12; [1]): 11 nM

Molecule: 3β-hydroxy-5-cholestenoic acid
- Activation of DimDAF-12 by spiked charcoal-stripped mouse serum (DimDAF-12): failed to activate; also recorded: did not activate
- Activation of FXR (FXR): do not activate
- Activation of HcoDAF-12 in dose-response (HcoDAF-12; [2]): failed to activate
- Activation of CelDAF-12 in dose-response (CelDAF-12; [2]): failed to activate

Molecule: C[C@H](CCC[C@@H](C)[C@H]1CC[C@H]2[C@@H]3CCC4=CC(=O)CC[C@]4(C)[C@H]3CC[C@]12C)C(=O)O [(25R)-Δ4-DA]
- Activation of DimDAF-12 by spiked charcoal-stripped mouse serum (DimDAF-12): partially complement; also recorded: partially restores; also recorded: partial restoration

Molecule: CC(=O)N1CCN(c2ccc(OCC3COC(Cn4ccnc4)(c4ccc(Cl)cc4Cl)O3)cc2)CC1 (stereo not drawn) [ketoconazole]
- Survival of iL3 (D. immitis iL3): all iL3 died
